Our source for the IC50 values is ChEMBL document CHEMBL3763038, “Design and synthesis of a new generation of substituted purine hydroxamate analogs as histone deacetylase inhibitors” (Bioorg Med Chem, 2016).

Assay [1] concerns the target Histone deacetylase (HDAC1 and HDAC2) (Homo sapiens, UniProt Q13547+Q92769). The assay can be described thus: Inhibition of HDAC1/2 in human HeLa cell nuclear extract using color de Lys as substrate preincubated for 5 mins followed by substrate addition measured after 30 min by microtiter plate reader analysis. Format: cell-based.
Assay [2] addresses Histone deacetylase 2 (Homo sapiens, UniProt Q92769). The assay can be described thus: Inhibition of C-terminal GST-tagged human recombinant HDAC2 expressed in Sf9 cells after 30 mins by microtiter plate reader analysis. In kind it is cell-based.
Assay [3] can be described thus: Antiproliferative activity against human PC3 cells after 48 hrs by MTT assay. The settings on record: PC-3, 48 h. Format: functional, cell-based. For orientation: Tetrazolium assays rely on reduction of a dye to a coloured formazan, in cell work by metabolically active cells.
In assay [4] the test system is MDA-MB-231. The assay can be described thus: Antiproliferative activity against human MDA-MB-231 cells after 48 hrs by MTT assay. In kind it is functional, cell-based. Conditions: MDA-MB-231, 48 h.
The target of assay [5] is T1, Histone deacetylase 8 (Homo sapiens, UniProt Q9BY41).
T1 sequence (Q9BY41 whole entry): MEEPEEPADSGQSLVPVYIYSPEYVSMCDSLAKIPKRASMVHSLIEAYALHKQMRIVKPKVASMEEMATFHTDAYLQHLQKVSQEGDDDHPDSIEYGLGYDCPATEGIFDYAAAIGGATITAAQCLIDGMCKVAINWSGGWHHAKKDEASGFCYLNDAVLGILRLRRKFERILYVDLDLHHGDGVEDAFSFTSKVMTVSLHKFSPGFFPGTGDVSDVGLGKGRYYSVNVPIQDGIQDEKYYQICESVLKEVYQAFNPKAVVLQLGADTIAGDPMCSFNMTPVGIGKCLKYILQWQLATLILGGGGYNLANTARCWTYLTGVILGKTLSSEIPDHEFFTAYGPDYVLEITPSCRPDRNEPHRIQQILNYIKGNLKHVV
The assay can be described thus: Inhibition of C-terminal His-tagged human recombinant HDAC8 expressed in Sf9 cells after 30 mins by microtiter plate reader analysis.

A short description of assay [6]: Antiproliferative activity against human KG1 cells after 48 hrs by MTT assay. In kind it is functional, cell-based. Conditions: KG-1, 48 h.

Structures are written as SMILES.

Sequence of Histone deacetylase 2 (Q92769 whole entry): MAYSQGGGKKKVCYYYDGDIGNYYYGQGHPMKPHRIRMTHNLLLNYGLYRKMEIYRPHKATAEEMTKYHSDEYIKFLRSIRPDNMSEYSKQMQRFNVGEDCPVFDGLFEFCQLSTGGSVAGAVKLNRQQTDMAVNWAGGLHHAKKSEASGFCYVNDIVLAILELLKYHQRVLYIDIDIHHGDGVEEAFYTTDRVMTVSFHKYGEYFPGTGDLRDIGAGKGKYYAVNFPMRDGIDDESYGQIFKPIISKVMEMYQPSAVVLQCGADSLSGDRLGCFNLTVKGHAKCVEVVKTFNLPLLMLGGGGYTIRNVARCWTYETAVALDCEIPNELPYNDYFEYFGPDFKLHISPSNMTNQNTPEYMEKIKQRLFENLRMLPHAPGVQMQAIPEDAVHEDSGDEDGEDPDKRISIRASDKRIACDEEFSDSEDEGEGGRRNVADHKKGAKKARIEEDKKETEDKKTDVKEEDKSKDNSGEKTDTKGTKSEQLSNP

As for `O=C(CCCCCNc1nc(Cl)nc2c1ncn2Cc1ccccc1)NO`, the IC50 – broadly, the concentration needed to halve the response being measured – was found to be 26 nM in assay [1]; 56 nM in assay [2]; 2830 nM in assay [3]; 1120 nM in assay [4]; 1440 nM in assay [5]; 320 nM in assay [6].
As to `CC(C)Cn1cnc2c(NCCCCCCC(=O)NO)nc(Cl)nc21`, the half-maximal inhibitory concentration (IC50) in assay [1] came out at 27 nM; in assay [2], 165 nM; in assay [3], 1380 nM; in assay [4], 1650 nM; in assay [5] it was 2010 nM; in assay [6], 860 nM.
`O=C(CCCCCCNc1nc(N2CCOCC2)nc2[nH]cnc12)NO` yielded an IC50 in assay [1] of 157 nM.
`CC(C)n1cnc2c(NCCCCCCC(=O)NO)nc(N)nc21`: the IC50 is 6860 nM in assay [3], 3300 nM in assay [4], 3130 nM in assay [5] and 3430 nM in assay [6].
Molecule `CCCCn1cnc2c(NCCCCCC(=O)NO)nc(N3CCOCC3)nc21` gave a half-inhibitory concentration (IC50) in assay [1] of 130 nM.
